Measured values published in ChEMBL document CHEMBL4813993, “Design and synthesis of diosgenin derivatives as apoptosis inducers through mitochondria-related pathways” (Eur J Med Chem, 2021).

What was measured:
[1] = system: MCF7; experiment: Cytotoxicity against human MCF7 cells assessed as inhibition of cell growth incubated for 48 hrs by CCK-8 assay; format: functional, cell-based; settings: MCF7, 48 h
[2] = system: K562; experiment: Cytotoxicity against human K562 cells assessed as inhibition of cell growth incubated for 48 hrs by CCK-8 assay; format: functional, cell-based; settings: K562, 48 h
[3] = system: A549; experiment: Potency index, ratio of diosgenin IC50 to test compound IC50 for cytotoxicity against human A549 cells assessed as inhibition of cell growth incubated for 48 hrs by CCK-8 assay; format: functional
[4] = system: A549; experiment: Cytotoxicity against human A549 cells assessed as inhibition of cell growth incubated for 48 hrs by CCK-8 assay; format: functional, cell-based; settings: A549, 48 h
[5] = system: MKN-45; experiment: Cytotoxicity against human MNK45 cells assessed as inhibition of cell growth incubated for 48 hrs by CCK-8 assay; format: functional, cell-based; settings: MKN-45, 48 h
[6] = system: HepG2; experiment: Cytotoxicity against human HepG2 cells assessed as inhibition of cell growth incubated for 48 hrs by CCK-8 assay; format: functional, cell-based; settings: HepG2, 48 h
[7] = system: T-24; experiment: Cytotoxicity against human T24 cells assessed as inhibition of cell growth incubated for 48 hrs by CCK-8 assay; format: functional, cell-based; settings: T-24, 48 h
[8] = system: T-24; experiment: Potency index, ratio of diosgenin IC50 to test compound IC50 for cytotoxicity against human T24 cells assessed as inhibition of cell growth incubated for 48 hrs by CCK-8 assay; format: functional
[9] = system: MKN-45; experiment: Potency index, ratio of diosgenin IC50 to test compound IC50 for cytotoxicity against human MNK45 cells assessed as inhibition of cell growth incubated for 48 hrs by CCK-8 assay; format: functional

## CC(=O)O[C@H]1CC[C@@]2(C)C(=CC[C@H]3[C@@H]4C[C@@H]5O[C@H](CC[C@@H](C)COC(=O)[C@@H](N)C(C)C)[C@@H](C)[C@@H]5[C@@]4(C)CC[C@@H]32)C1
[1]
  IC50: 17.8 µM
[2]
  IC50: 6.77 µM
[3]
  Ratio IC50: 6.7
[4]
  IC50: 4.92 µM
[5]
  IC50: 7.01 µM
[6]
  IC50: 12.3 µM
[7]
  IC50: 4.94 µM

## CC(C)[C@H](N)C(=O)O[C@H]1CC[C@@]2(C)C(=CC[C@H]3[C@@H]4C[C@@H]5O[C@]6(CC[C@@H](C)CO6)[C@@H](C)[C@@H]5[C@@]4(C)CC[C@@H]32)C1
[1]
  IC50: > 30 µM
[2]
  IC50: 16.5 µM
[4]
  IC50: 23 µM
[5]
  IC50: 13.4 µM
[6]
  IC50: 27.7 µM
[7]
  IC50: 11.8 µM

## CC(=O)O[C@H]1CC[C@@]2(C)C(=CC[C@H]3[C@@H]4C[C@@H]5O[C@H](CC[C@@H](C)COC(=O)[C@H](C)N)[C@@H](C)[C@@H]5[C@@]4(C)CC[C@@H]32)C1
[1]
  IC50: > 30 µM
[2]
  IC50: 17.5 µM
[4]
  IC50: 27.6 µM
[5]
  IC50: 10.7 µM
[6]
  IC50: > 30 µM
[7]
  IC50: 11.4 µM

## C[C@@H]1CC[C@@]2(OC1)O[C@H]1C[C@H]3[C@@H]4CC=C5C[C@@H](OC(=O)[C@H](C)N)CC[C@]5(C)[C@H]4CC[C@]3(C)[C@H]1[C@@H]2C
[1]
  IC50: > 30 µM
[2]
  IC50: 15.5 µM
[4]
  IC50: 18.1 µM
[5]
  IC50: 11.5 µM
[6]
  IC50: > 30 µM
[7]
  IC50: 9.1 µM

## CC(=O)O[C@H]1CC[C@@]2(C)C(=CC[C@H]3[C@@H]4C[C@@H]5O[C@H](CC[C@@H](C)COC(=O)CN)[C@@H](C)[C@@H]5[C@@]4(C)CC[C@@H]32)C1
[1]
  IC50: > 30 µM
[2]
  IC50: 15.2 µM
[4]
  IC50: > 30 µM
[5]
  IC50: 17.3 µM
[6]
  IC50: > 30 µM
[7]
  IC50: 10.4 µM

## CC(=O)O[C@H]1CC[C@@]2(C)C(=CC[C@H]3[C@@H]4C[C@@H]5O[C@H](CC[C@@H](C)COC(=O)[C@@H](N)Cc6ccccc6)[C@@H](C)[C@@H]5[C@@]4(C)CC[C@@H]32)C1
[1]
  IC50: > 30 µM
[2]
  IC50: 15.8 µM
[4]
  IC50: 27.2 µM
[5]
  IC50: > 30 µM
[6]
  IC50: 18.8 µM
[7]
  IC50: 8.22 µM

## C[C@@H]1CC[C@@]2(OC1)O[C@H]1C[C@H]3[C@@H]4CC=C5C[C@@H](OC(=O)[C@@H]6CCCN6)CC[C@]5(C)[C@H]4CC[C@]3(C)[C@H]1[C@@H]2C
[1]
  IC50: 11.4 µM
[2]
  IC50: 7.47 µM
[4]
  IC50: 20.6 µM
[5]
  IC50: 5.47 µM
[6]
  IC50: 16.4 µM
[7]
  IC50: 9.65 µM

## CC(=O)O[C@H]1CC[C@@]2(C)C(=CC[C@H]3[C@@H]4C[C@@H]5O[C@H](CC[C@@H](C)COC(=O)[C@@H](N)CC(C)C)[C@@H](C)[C@@H]5[C@@]4(C)CC[C@@H]32)C1
[1]
  IC50: 21.2 µM
[2]
  IC50: 11.5 µM
[4]
  IC50: > 30 µM
[5]
  IC50: 12.1 µM
[6]
  IC50: 12.9 µM
[7]
  IC50: 5.67 µM

## C[C@@H]1CC[C@@]2(OC1)O[C@H]1C[C@H]3[C@@H]4CC=C5C[C@@H](O)CC[C@]5(C)[C@H]4CC[C@]3(C)[C@H]1[C@@H]2C [DISOGENIN]
[1]
  IC50: 28.5 µM
[2]
  IC50: 30 µM
[4]
  IC50: 32.9 µM
[5]
  IC50: 78.3 µM
[6]
  IC50: 48.4 µM
[7]
  IC50: 28.9 µM

## O=c1[nH]cc(F)c(=O)[nH]1 [FLUOROURACIL]
[1]
  IC50: 18.6 µM
[2]
  IC50: 20.2 µM
[5]
  IC50: 21.4 µM
[6]
  IC50: 18.9 µM
[7]
  IC50: 12.9 µM

## C[C@@H]1CC[C@@]2(OC1)O[C@H]1C[C@H]3[C@@H]4CC=C5C[C@@H](OC(=O)[C@@H](N)Cc6c[nH]c7ccccc67)CC[C@]5(C)[C@H]4CC[C@]3(C)[C@H]1[C@@H]2C
[1]
  IC50: 9.6 µM
[2]
  IC50: 8.47 µM
[8]
  Ratio IC50: 4.1
[4]
  IC50: 12.9 µM
[5]
  IC50: 5.21 µM
[9]
  Ratio IC50: 15
[6]
  IC50: 17 µM
[7]
  IC50: 7.06 µM

## C[C@@H]1CC[C@@]2(OC1)O[C@H]1C[C@H]3[C@@H]4CC=C5C[C@@H](OC(=O)CN)CC[C@]5(C)[C@H]4CC[C@]3(C)[C@H]1[C@@H]2C [GLYCINE DIOSGENYL ESTER]
[1]
  IC50: 10.3 µM
[2]
  IC50: 7.68 µM
[4]
  IC50: 18 µM
[5]
  IC50: 16.2 µM
[6]
  IC50: 14.9 µM
[7]
  IC50: 9.98 µM

## C[C@@H]1CC[C@@]2(OC1)O[C@H]1C[C@H]3[C@@H]4CC=C5C[C@@H](OC(=O)[C@@H](N)Cc6ccccc6)CC[C@]5(C)[C@H]4CC[C@]3(C)[C@H]1[C@@H]2C
[1]
  IC50: 25.4 µM
[2]
  IC50: 8.59 µM
[4]
  IC50: > 30 µM
[5]
  IC50: 11.4 µM
[6]
  IC50: 26.1 µM
[7]
  IC50: 10.6 µM

## CC(=O)O[C@H]1CC[C@@]2(C)C(=CC[C@H]3[C@@H]4C[C@@H]5O[C@H](CC[C@@H](C)COC(=O)[C@@H]6CCCN6)[C@@H](C)[C@@H]5[C@@]4(C)CC[C@@H]32)C1
[1]
  IC50: > 30 µM
[2]
  IC50: 27.7 µM
[4]
  IC50: 22.3 µM
[5]
  IC50: 17.3 µM
[6]
  IC50: 18.5 µM
[7]
  IC50: 12.2 µM

## CC(C)C[C@H](N)C(=O)O[C@H]1CC[C@@]2(C)C(=CC[C@H]3[C@@H]4C[C@@H]5O[C@]6(CC[C@@H](C)CO6)[C@@H](C)[C@@H]5[C@@]4(C)CC[C@@H]32)C1
[1]
  IC50: > 30 µM
[2]
  IC50: 10.5 µM
[4]
  IC50: > 30 µM
[5]
  IC50: 10.4 µM
[6]
  IC50: > 30 µM
[7]
  IC50: 8.83 µM
